Data as given in PubChem BioAssay (NCI).
Values joined by “and” are separate entries in the source; they are usually repeats but may differ in a detail not shown here. Identical values can stand only once.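 Tested at 5 concentrations; 48 h exposure; 96-well plates; endpoints linearly interpolated, else capped at highest concentration. The concentration for 50% growth inhibition is given as GI50. Definition used: TGI = concentration required for complete inhibition of growth.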

Columns and labels:
Experiment in all cases: NCI-60 cell line screen, 48 h
A549 NSCLC = tested on: A549 NSCLC
DU-145 prostate = tested on: DU-145 prostate
HCT-15 colon = tested on: HCT-15 colon
K-562 leukemia = tested on: K-562 leukemia
M14 melanoma = tested on: M14 melanoma
NCI-H522 lung = tested on: NCI-H522 lung
OVCAR-3 ovarian = tested on: OVCAR-3 ovarian
OVCAR-4 ovarian = tested on: OVCAR-4 ovarian
UO-31 renal = tested on: UO-31 renal
MCF7 breast = tested on: MCF7 breast

Row | Structure (SMILES) | TGI (A549 NSCLC) | TGI (DU-145 prostate) | TGI (HCT-15 colon) | TGI (K-562 leukemia) | TGI (M14 melanoma) | TGI (NCI-H522 lung) | TGI (OVCAR-3 ovarian) | TGI (OVCAR-4 ovarian) | TGI (UO-31 renal) | GI50 (A549 NSCLC) | GI50 (HCT-15 colon) | GI50 (K-562 leukemia) | GI50 (NCI-H522 lung) | GI50 (OVCAR-3 ovarian) | GI50 (OVCAR-4 ovarian) | GI50 (UO-31 renal) | GI50 (DU-145 prostate) | GI50 (MCF7 breast) | TGI (MCF7 breast) | GI50 (M14 melanoma)
1 | Nc1nc2c(ncn2C2OC(CO)C(O)C2O)c(=O)o1 (stereo not given) | > 100 µM | > 100 µM | > 100 µM | > 100 µM | > 100 µM | > 100 µM | > 100 µM | > 100 µM | > 100 µM |  |  |  |  |  |  |  |  |  |  | 
2 | CC[C@@]1(O)C(=O)OCc2c1cc1n(c2=O)Cc2cc3cc(O)ccc3nc2-1 | 3.93 µM and 2.32 µM | 0.0786 µM | 20.8 µM and 42.5 µM | 24.7 µM and > 46.5 µM | 1.39 µM | 0.103 µM and 0.447 µM | 0.301 µM and 0.228 µM | 0.441 µM and 3.17 µM | 0.204 µM and 0.135 µM | 0.0813 µM | 0.355 µM | 0.0419 µM and 0.0427 µM | < 0.0075 µM | 0.069 µM and 0.0368 µM | 0.224 µM | 0.0311 µM and 0.0195 µM |  |  |  | 
3 | CC1CN1c1c(C(=O)/C=C/c2ccc(F)cc2)c(-c2ccccc2)nn(C)c1=O (stereo not given) | 47.5 µM |  |  |  | 30.5 µM |  | 28.9 µM | 42.7 µM | 25.5 µM |  |  |  |  |  |  |  |  |  |  | 
4 | Cc1cc(C)c([O-])c(-[n+]2c(-c3ccccc3)cc(-c3ccccc3)cc2-c2ccccc2)c1 | 28 µM |  | 25.4 µM | > 100 µM | 18.3 µM |  | 12 µM | 18.5 µM | 33.7 µM |  |  |  |  |  |  |  |  |  |  | 
5 | COc1ccc(N=Nc2c(-c3ccccc3)nn(C(=O)CC(=O)Nc3ccc(OC)cc3)c2-c2ccccc2)cc1 | > 100 µM |  | > 100 µM | > 100 µM |  | > 100 µM | > 100 µM | > 100 µM | > 100 µM |  |  |  |  |  |  |  |  |  |  | 
6 | COC1(OC)CCC2(C)OC(c3ccccc3)C1O2 (stereo not given) | > 100 µM |  | > 100 µM | > 100 µM | > 100 µM | > 100 µM | > 100 µM | > 100 µM | > 100 µM |  |  |  |  |  |  |  |  |  |  | 
7 | N#C/C(=C\c1ccc(O)c(O)c1)C(=O)NCc1cccc(C(F)(F)F)c1 | 90 µM | 50.9 µM | 46.3 µM | > 100 µM |  | 63.2 µM |  | 74.4 µM | 73.9 µM | 15.1 µM | 3.64 µM | 21.3 µM | 7.71 µM |  | 15.1 µM | 11.8 µM | 12.1 µM | 19.8 µM | > 100 µM | 
8 | CC(=O)CCC[C@@H](C)[C@@H]1O[C@H]([C@@]2(C)CCC(=O)O2)CC2[C@H]1OC(=O)C21CC1 (stereo not given in full) | > 100 µM |  | > 100 µM | > 100 µM |  | > 100 µM | > 100 µM | > 100 µM | > 100 µM | > 100 µM | > 100 µM | > 100 µM | > 100 µM | > 100 µM | > 100 µM | > 100 µM |  | 22.3 µM | > 100 µM | 
9 | COC(=O)C1=C(C)N(NC(N)=O)C2(N)N(NC(N)=O)C(C)=C(C(=O)OC)C12C#N (stereo not given) | > 100 µM |  | > 100 µM | > 100 µM | > 100 µM | > 100 µM | > 100 µM | > 100 µM | > 100 µM |  |  |  |  |  |  |  |  |  |  | 
10 | Oc1ccc(/C=N/NC(=S)Nc2ccccc2)nc1 | 26.3 µM | > 100 µM | > 100 µM | > 100 µM |  | 39.8 µM | > 100 µM | > 100 µM | 16.8 µM | 2.33 µM | 0.407 µM | 3.72 µM | 1.94 µM | 0.405 µM | 0.579 µM | 0.661 µM | 1.1 µM | 2.73 µM | > 100 µM | 
11 | CN(C)CC1CCCC/C1=N\OC(=O)c1ccccc1 (stereo not given) | > 100 µM |  | > 100 µM | > 100 µM | > 100 µM | > 100 µM | > 100 µM | > 100 µM | > 100 µM |  |  |  |  |  |  |  |  |  |  | 
12 | COc1ccc(C(=O)C(c2ccc(OC)cc2)C2(O)C(=O)Nc3c(Cl)cc(Cl)cc32)cc1 (stereo not given) | 54.9 µM |  | 49.8 µM | 41.5 µM | 33.6 µM | 35.2 µM | 49.9 µM | 20.1 µM | 62.2 µM |  |  |  |  |  |  |  |  |  |  | 
13 | COc1ccc(-c2cc(-c3ccc(Cl)cc3)nc(SCCCC(=O)NO)n2)cc1OC | 8.59 µM | 4.73 µM | 1.56 µM |  |  | 4.05 µM | 2.52 µM | 12.3 µM | 1.09 µM | 1.58 µM | 0.337 µM |  | 1.3 µM | 0.423 µM | 0.889 µM | 0.277 µM | 0.811 µM | 1.63 µM | 5.39 µM | 
14 | CC(C)(C)c1cc(Cc2ccc(S(C)(=O)=O)cc2)c(O)c(C(C)(C)C)c1 | 24.2 µM |  | 31 µM | 31.6 µM | 28.9 µM | 24.9 µM |  | 28.1 µM | 29.6 µM |  |  |  |  |  |  |  |  |  |  | 
15 | CC(=O)NNc1nc(C)c(C(=O)/C=C/c2ccc(N(C)C)cc2)s1 | > 100 µM |  | > 100 µM | > 100 µM |  | > 100 µM | > 100 µM |  | > 100 µM |  |  |  |  |  |  |  |  |  |  | 
16 | O=C1CC[C@@H](S(=O)(=O)c2ccccc2)[C@H](/C=C/c2ccccc2)O1 | > 100 µM |  | > 100 µM | > 100 µM | > 100 µM | > 100 µM | > 100 µM | > 100 µM | > 100 µM |  |  |  |  |  |  |  |  |  |  | 
17 | CCN(CC)CCN1C(=O)c2c(c3c4cccc(Cl)c4n(C4OC(CO)C(OC)C(O)C4O)c3c3[nH]c4c(Cl)cccc4c23)C1=O (stereo not given) |  | 0.0845 µM |  |  |  | 0.21 µM and 0.146 µM |  |  |  | < 0.0001 µM |  |  | < 0.01 µM |  |  |  |  |  | 0.199 µM | 0.000565 µM and < 0.0368 µM and < 0.0145 µM
18 | Oc1c(Cl)cc(Cl)c(Cl)c1Cc1c(O)c(Cl)cc(Cl)c1Cl | 12.9 µM | 22.1 µM | 13.7 µM |  | 13.9 µM | 9.66 µM | 8.47 µM | 14 µM | 11.8 µM | 1.99 µM | 0.528 µM |  | 0.521 µM | 1.34 µM | 2.52 µM | 2.18 µM | 4.13 µM | 1.34 µM | 13.9 µM | 1.38 µM
19 | COc1cc(C(=O)/C=C/c2cccnc2Nc2ccc(Cl)cc2)cc(OC)c1OC | 3.6 µM | 2.98 µM | 3.48 µM |  | 3.22 µM | 3 µM | 2.62 µM | 2.98 µM | 2.7 µM | 1.63 µM | 1.49 µM |  | 1.46 µM | 1.31 µM | 1.51 µM | 1.32 µM | 1.63 µM | 1.02 µM | 2.35 µM | 1.75 µM
